# Source: ChEMBL document CHEMBL1148419, “Novel P4 truncated tripeptidyl alpha-ketoamides as HCV protease inhibitors” (Bioorg Med Chem Lett, 2004)
# Active and inactive are the calls of the source. The calls are words filed in the database; no cut-off is given here.
# Test system: Hepatitis C virus NS3 protease (Hepatitis C virus)
# Assay: Inhibitory activity against Protease using replicon assay in rats at 50 uM concentration
# Details: Rattus norvegicus
row,inhibition,Structure (SMILES)
1,22%,CCCC(NC(=O)[C@@H]1[C@H]2CCC(F)(F)[C@H]2CN1C(=O)[C@@H](NC(=O)OC(C)C)C(C)C)C(=O)C(=O)N[C@@H](C)c1ccccc1 (some centres not stated)
2,inactive,CCCC(NC(=O)[C@@H]1[C@H]2CCC(F)(F)[C@H]2CN1C(=O)[C@@H](NC(=O)[C@H](O)C(C)C)C(C)C)C(=O)C(=O)NC1CC1 (some centres not stated)
3,7%,CCCC(NC(=O)[C@@H]1[C@H]2CCC[C@H]2CN1C(=O)[C@@H](NC(=O)OC(C)C)C(C)C)C(=O)C(=O)N[C@@H](C)c1ccccc1 (some centres not stated)
4,51%,CCCC(NC(=O)[C@@H]1[C@H]2CCC(F)(F)[C@H]2CN1C(=O)[C@@H](NC(=O)OC(C)C)C(C)(C)C)C(=O)C(=O)N[C@@H](C)c1ccccc1 (some centres not stated)

# Test system: Hepatitis C virus NS3 protease (Hepatitis C virus)
# Assay: Inhibitory activity against Protease using replicon assay in rats at 50 uM concentration; Not active
# Details: Rattus norvegicus
row,inhibition,Structure (SMILES)
1,inactive,CCCC(NC(=O)[C@@H]1[C@H]2CCC[C@H]2CN1C(=O)[C@@H](NC(=O)OC(C)C)C(C)(C)C)C(=O)C(=O)Nc1ccccc1 (some centres not stated)
2,inactive,CCCC(NC(=O)[C@@H]1[C@H]2CCC[C@H]2CN1C(=O)[C@@H](NC(=O)[C@H](O)C(C)C)C(C)C)C(=O)C(=O)NC1CC1 (some centres not stated)
3,inactive,CCCC(NC(=O)[C@@H]1[C@H]2CCC[C@H]2CN1C(=O)[C@@H](NC(=O)[C@H](O)C(C)C)C(C)C)C(=O)C(=O)Nc1ccccc1 (some centres not stated)
